This note sets out measurements from patent US11696895B2, “Fine particle coating (drug-containing hollow particle and method for manufacturing same)” (Sumitomo Pharma Co., Ltd., priority 2017, dated 2023).

Data set [1] is described as follows: Particle size distribution (laser diffraction, volume based). It is filed as physicochemical. The following applies: Table 2-2 particle sizes. The protocol:
As used herein, “mean particle size” refers to cumulative 50% point of particle size D50 in volume based measurement of powder particles. Such a mean particle size is measured based on volume with a laser diffraction particle size distribution analyzer (e.g., Powrex Corp: […] VIEWER, Shimadzu Corp: SALD-3000J, or […]: HELOS & RODOS).
The particle size distribution of components of interest, macromolecules, other additives, mixed powder of components of interest and other additives, resulting coated component of interest-containing hollow particles, and coatable microparticles was measured based on volume with a laser diffraction particle size distribution analyzer (e.g., Powrex Corp: […] VIEWER or […]: HELOS & RODOS).

Data set [2] is described as follows: Dissolution test (paddle method, revised 16th Japanese Pharmacopoeia), HPLC. It is filed as physicochemical. Conditions: 50% dissolution time after coating / before coating (uncoated nucleus). The protocol: Dissolution tests were conducted using the tablets manufactured in Comparative Example 2 and Example 2. Water of 37° C./900 ML was used as the test solution for measurement at a number of rotations of 50 RPM based on the paddle method of a dissolution test method in the revised 16th Japanese Pharmacopoeia. The measurement times were 10, 15, 30, 45, 60, 90, 120, 360, 720, 1080, and 1440. The sampling solution was filtered and measured by HPLC to calculate the dissolution rate.
<HPLC Measurement Conditions> • Detector: ultraviolet visible spectrophotometer • Measurement wavelength: 285 NM • Column: WATERS ACQUITY UPLC C18 [2.1 MM Φ×30 MM] • Colum temperature: 40° C. • Amount of flow: 0.5 ML/MIN • Amount injected: […] • Sample cooler: 25° C. • Syringe cleansing solution: water/acetonitrile mixture=1/1 • Mobile phase: water/acetonitrile mixture=4/1
A dissolution test was conducted using the particles manufactured in Example 4 and particles manufactured in Comparative Example 1. The test conditions were the same as Test Example 1.
A dissolution test was conducted using the coated component of interest-containing hollow particles manufactured in Example 5. The test conditions were the same as Test Example 1. […] The dissolution time was extended by a factor of 2 or greater. Improvement in the ability to control release of macromolecules constituting nuclear particles was confirmed for all coated component of interest-containing hollow particles using water insoluble particles as coatable microparticles.
A dissolution test was conducted using the particles manufactured in Example 7-2 and tablets manufactured in Example 8-1 and Comparative Examples 8-1 and 8-2. The test conditions were the same as in Test Example 1.
A dissolution test was conducted using the particles manufactured in Example 11 and Comparative Example 11. The test conditions were the same as Test Example 1.
A dissolution test was conducted using the particles manufactured in Comparative Example 12B. The test conditions were the same as Test Example 1.

In data set [1], `NS(=O)(=O)Cc1noc2ccccc12` [Compound A, 1,2-BENZISOXAZOLE-3-METHANESULFONAMIDE] registered a D10 of 0.73 µm, a D50 of 1.99 µm and a D90 of 5.16 µm.

As for `COc1cc(N)c(Cl)cc1C(=O)NC[C@H]1CN(CC2CCN(C(=O)CO)CC2)CCO1` [Compound D], the “Ratio of 50% dissolution time with respect to nucleus (JP 1st)” value (shortened to “Ratio of 50% dissolution time”) in data set [2] was at least 63.

Take `CC(=O)Nc1ccc(O)cc1` [Compound E, N-(4-HYDROXYPHENYL)ACETAMIDE]: the “Ratio of 50% dissolution time” value in data set [2] is at least 21. As to `Cn1c(=O)c2c(ncn2C)n(C)c1=O` [Compound F, 1,3,7-TRIMETHYLPURINE-2,6-DIONE], in data set [2], the “Ratio of 50% dissolution time” value is reported as at least 235.
